Each structure is given as a SMILES string.

The target in the data set is ATP-dependent translocase ABCB1 (Mus musculus, UniProt P21447). As to the kind of experiment: TP_TRANSPORTER: increase in brain concentration in mdr1a(-/-) mouse. The data set is classed as functional, organism-based. To be noted: in vivo.
Chain of ATP-dependent translocase ABCB1 (P21447 whole entry): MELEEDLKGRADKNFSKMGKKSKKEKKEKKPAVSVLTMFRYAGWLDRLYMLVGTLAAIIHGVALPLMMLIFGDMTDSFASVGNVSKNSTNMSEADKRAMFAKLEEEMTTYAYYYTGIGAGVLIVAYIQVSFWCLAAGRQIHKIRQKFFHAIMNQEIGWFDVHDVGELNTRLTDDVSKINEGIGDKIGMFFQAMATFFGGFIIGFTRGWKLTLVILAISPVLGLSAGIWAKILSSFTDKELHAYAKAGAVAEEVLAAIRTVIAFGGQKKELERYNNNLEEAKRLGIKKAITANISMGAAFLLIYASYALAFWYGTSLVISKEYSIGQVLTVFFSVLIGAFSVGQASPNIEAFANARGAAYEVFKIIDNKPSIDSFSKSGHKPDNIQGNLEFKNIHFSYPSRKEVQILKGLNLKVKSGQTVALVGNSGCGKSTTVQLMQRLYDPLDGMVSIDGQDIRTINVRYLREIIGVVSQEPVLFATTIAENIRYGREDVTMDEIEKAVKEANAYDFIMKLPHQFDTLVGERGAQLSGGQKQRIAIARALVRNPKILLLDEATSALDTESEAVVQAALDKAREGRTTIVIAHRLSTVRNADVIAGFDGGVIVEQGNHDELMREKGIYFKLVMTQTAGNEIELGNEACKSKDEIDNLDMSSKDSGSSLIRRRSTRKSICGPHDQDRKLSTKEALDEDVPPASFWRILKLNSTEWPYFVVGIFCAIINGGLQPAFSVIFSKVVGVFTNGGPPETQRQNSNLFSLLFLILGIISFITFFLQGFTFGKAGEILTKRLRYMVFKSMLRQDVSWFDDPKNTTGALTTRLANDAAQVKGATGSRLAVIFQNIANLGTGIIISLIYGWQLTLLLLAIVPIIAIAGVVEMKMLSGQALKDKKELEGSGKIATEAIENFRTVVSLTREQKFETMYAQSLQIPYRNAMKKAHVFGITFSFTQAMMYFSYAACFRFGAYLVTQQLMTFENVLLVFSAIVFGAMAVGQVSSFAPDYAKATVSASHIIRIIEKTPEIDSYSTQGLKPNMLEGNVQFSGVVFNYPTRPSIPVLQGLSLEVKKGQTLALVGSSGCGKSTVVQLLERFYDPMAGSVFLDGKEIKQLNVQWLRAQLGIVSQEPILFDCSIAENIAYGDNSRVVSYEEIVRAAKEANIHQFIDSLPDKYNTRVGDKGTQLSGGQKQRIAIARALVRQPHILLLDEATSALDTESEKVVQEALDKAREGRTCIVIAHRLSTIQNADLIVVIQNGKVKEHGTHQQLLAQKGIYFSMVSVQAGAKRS

As for `CC[C@]1(O)C[C@H]2CN(CCc3c([nH]c4ccccc34)[C@@](C(=O)OC)(c3cc4c(cc3OC)N(C=O)[C@H]3[C@@](O)(C(=O)OC)[C@H](OC(C)=O)[C@]5(CC)C=CCN6CC[C@]43[C@@H]65)C2)C1` [VINCRISTINE], the Activity result was “substrate [+]”.

The record behind these values is ChEMBL document CHEMBL2074408, “Altered pharmacokinetics of vinblastine in Mdr1a P-glycoprotein-deficient Mice” (J Natl Cancer Inst, 1996).
